Experimental findings from patent publication US20140378416A1, “SILYL-CONTAINING HETEROCYCLIC COMPOUNDS AND METHODS OF USE THEREOF FOR THE TREATMENT OF VIRAL DISEASES” (priority 2011, published 2014) are described below.

The EC90 is the concentration needed for an effect of 90%.

One test concerns HCV replicon 1a. The experiment in a line: Cell-based HCV replicon assay (TaqMan), genotype 1a replicon. The following applies: Hepatitis C virus, 72 h, HCV 1a replicon cells, replicon RNA by TaqMan on day 3; EC90 = concentration for ΔCT=3.2 over baseline. The procedure:
(§1) Measurement of inhibition by compounds of the present invention was performed using the HCV replicon system. Several different replicons encoding different HCV genotypes or mutations were used. In addition, potency measurements were made using different formats of the replicon assay, including different ways of measurements and different plating formats. See Jan M. Vrolijk et al., A replicons-based bioassay for the measurement of interferons in patients with chronic hepatitis C, 110 J. VIROLOGICAL METHODS 201 (2003); Steven S. Carroll et al., Inhibition of Hepatitis C Virus RNA Replication by 2′-Modified Nucleoside Analogs, 278(14) J. BIOLOGICAL CHEMISTRY 11979 (2003). However, the underlying principles are common to all of these determinations, and are outlined below.
(§2) Compounds of the present invention were assayed for cell-based anti-HCV activity using the following protocol. Replicon cells were seeded at 5000 cells/well in 96-well collagen I-coated Nunc plates in the presence of the test compound. Various concentrations of test compound, typically in 10 serial 2-fold dilutions, were added to the assay mixture, with the starting concentration ranging from 250 μM to 1 μM. The final concentration of DMSO was 0.5%, fetal bovine serum was 5%, in the assay media. Cells were harvested on day 3 by the addition of 1× cell lysis buffer (Ambion cat #8721). The replicon RNA level was measured using real time PCR (TaqMan® assay). The amplicon was located in 5B. The PCR primers were: 5B.2F, ATGGACAGGCGCCCTGA (SEQ. ID NO. 1); 5B.2R, […] (SEQ. ID NO. 2); the probe sequence was FAM-labeled CACGCCATGCGCTGCGG (SEQ. ID NO. 3). GAPDH RNA was used as endogenous control and was amplified in the same reaction as NS5B (multiplex PCR) using primers and VIC-labeled probe recommended by the manufacturer (PE Applied Biosystem). The real-time […] reactions were run on ABI PRISM 7900HT Sequence Detection System using the following program: 48° C. for 30 minutes, 95° C. for 10 minutes, 40 cycles of 95° C. for 15 sec, 60° C. for 1 minute. The ACT values (CT5B-CTGAPDH) were plotted against the concentration of test compound and fitted to the sigmoid dose-response model using XLfit4 (MDL). EC50 was defined as the concentration of inhibitor necessary to achieve ΔCT=1 over the projected baseline; EC90 the concentration necessary to achieve ΔCT=3.2 over the baseline. Alternatively, to quantitate the absolute amount of replicon RNA, a standard curve was established by including serially diluted T7 transcripts of replicon RNA in the Taqman assay. All TaqMan® reagents were from PE Applied Biosystems. Such an assay procedure was described in detail in e.g. Malcolm et al., Antimicrobial Agents and Chemotherapy 50: 1013-1020 (2006).
(§3) HCV replicon EC50 assay data for various replicons and mutants was calculated for selected compounds of the present invention using this method and is provided in the tables above herein.
A general note: Replicon systems follow genome replication, usually without infectious particles.

A further test has as its system HCV replicon 1a Y93H. Description: Cell-based HCV replicon assay (TaqMan), genotype 1a Y93H mutant replicon. The following applies: Hepatitis C virus, 72 h, read-out: 1a Y93H EC90, HCV 1a Y93H mutant replicon cells, replicon RNA by TaqMan on day 3; EC90 = concentration for ΔCT=3.2 over baseline. The procedure: as §1, §2, §3
For a further test, the system named is HCV replicon 1b. Description: Cell-based HCV replicon assay (TaqMan), genotype 1b replicon. Conditions: Hepatitis C virus, 72 h, HCV 1b replicon cells, replicon RNA by TaqMan on day 3; EC90 = concentration for ΔCT=3.2 over baseline. The procedure:
as §1, §2, §3

In a further test the test system is HCV replicon 2b. The experiment in a line: Cell-based HCV replicon assay (TaqMan), genotype 2b replicon. The following applies: Hepatitis C virus, 72 h, read-out: 2b EC90, HCV 2b replicon cells, replicon RNA by TaqMan on day 3; EC90 = concentration for ΔCT=3.2 over baseline. On the procedure:
as §1, §2, §3

As for `COC(=O)N[C@H](C(=O)N1C[C@H](F)C[C@H]1c1ncc(-c2ccc(C#Cc3ccc(-c4cnc([C@@H]5C[Si](C)(C)CN5C(=O)OC(C)(C)C)[nH]4)cc3)cc2)[nH]1)C(C)C` [Compound 56], the EC90 in the test on HCV replicon 1a was 681 nM; in the test on HCV replicon 1a Y93H, over 1000 nM.
For the molecule `COC(=O)N[C@H](C(=O)N1CCC[C@H]1c1ncc(-c2ccc(-c3ccc4[nH]c([C@@H]5C[Si](C)(C)CN5C(=O)[C@@H](NC(=O)OC)C(C)C)nc4c3)cc2)[nH]1)C(C)C` [Compound 9], the 90% effect concentration (EC90) with HCV replicon 1a was over 1 nM; in the test on HCV replicon 1b, under 1 nM; in the test with HCV replicon 1a Y93H it was over 1000 nM.
The corresponding values for `COC(=O)N[C@H](C(=O)N1CCC[C@H]1c1ncc(-c2ccc(-c3ccc(-c4cnc([C@@H]5C[Si](C)(C)CN5C(=O)[C@@H](NC(=O)OC)C(C)C)[nH]4)cc3)cc2)[nH]1)C(C)C` [Compound 3] are 0.16 nM, 0.005 nM and 398 nM.
Consider `CC(C)(C)OC(=O)N1C[Si](C)(C)C[C@H]1c1ncc(-c2ccc(-c3ccc(-c4[nH]c([C@@H]5C[C@H]6C[C@H]6N5C(=O)OC(C)(C)C)nc4F)cc3)cc2)[nH]1` [Compound 42], for which the EC90 with HCV replicon 1a is over 1 nM; with HCV replicon 1a Y93H it was over 1000 nM; with HCV replicon 2b, over 1000 nM.
For the molecule `COC(=O)N[C@H](C(=O)N1C[Si](C)(C)C[C@H]1c1ncc(-c2ccc(-c3ccc(-c4[nH]c([C@@H]5CCCN5C(=O)[C@@H](NC(=O)OC)C5CCOCC5)nc4C4CC4)cc3)cc2)[nH]1)C1CCOCC1` [Compound 66], the EC90 was 0.07 nM in the test with HCV replicon 1a, 88 nM with HCV replicon 1a Y93H and 1.6 nM in the test on HCV replicon 2b.
Regarding `COC(=O)N[C@H](C(=O)N1CCC[C@H]1c1ncc(-c2ccc(-c3ccc(-c4cnc([C@@H]5C[Si](C)(C)CN5C(=O)[C@@H](NC(=O)OC)C(C)C)[nH]4)c(OC)c3)cc2)[nH]1)C(C)C` [Compound 70], the concentration for an effect of 90% (EC90) in the test with HCV replicon 1a was over 1 nM; in the test on HCV replicon 1b, 0.006 nM; with HCV replicon 1a Y93H it was over 1000 nM.
In the case of `COC(=O)N[C@H](C(=O)N1CC(F)(F)C[C@H]1c1cnc(-c2ccc(-c3ccc(-c4cnc([C@@H]5C[Si](C)(C)CN5C(=O)[C@@H](NC(=O)OC)C(C)C)[nH]4)cc3)cc2)[nH]1)C(C)C` [Compound 74], the EC90 in the test with HCV replicon 1a worked out at 0.27 nM; with HCV replicon 1a Y93H, 644 nM.
Turning to `C[Si]1(C)CN[C@H](c2ncc(-c3ccc(-c4ccc(-c5cnc([C@@H]6CCCN6)[nH]5)cc4)cc3)[nH]2)C1` [Compound 2], the EC90 with HCV replicon 1a was over 100 nM; in the test on HCV replicon 1b, over 1000 nM.
Turning to `COC(=O)N[C@H](C(=O)N1C[Si](C)(C)C[C@H]1c1nc(Cl)c(-c2ccc(-c3ccc(-c4[nH]c([C@@H]5C[C@H]6C[C@H]6N5C(=O)[C@@H](NC(=O)OC)C5CCOCC5)nc4Cl)cc3)cc2)[nH]1)C1CCOCC1` [Compound 54], the EC90 in the test on HCV replicon 1a is 0.023 nM; in the test on HCV replicon 1a Y93H, 2.5 nM; in the test on HCV replicon 2b, 0.48 nM.
Consider `COC(=O)N[C@H](C(=O)N1CC(F)(F)C[C@H]1c1ncc(-c2ccc(-c3ccc(-c4cnc([C@@H]5C[Si](C)(C)CN5C(=O)[C@@H](NC(=O)OC)C(C)C)[nH]4)cc3)cc2)[nH]1)C(C)C` [Compound 4], for which the results for the EC90 with HCV replicon 1a, in the test with HCV replicon 1b and with HCV replicon 1a Y93H were 0.1 nM, 0.007 nM and 272 nM, respectively.
In the case of `CC(C)(C)OC(=O)N1CCC[C@H]1c1cnc(-c2ccc3c(c2)[Si](C)(C)c2cc(-c4cnc([C@@H]5CCCN5C(=O)OC(C)(C)C)[nH]4)ccc2-3)[nH]1` [Compound 80], the EC90 was over 1 nM in the test with HCV replicon 1a and 467 nM in the test on HCV replicon 1b.
Consider `COC(=O)N[C@H](C(=O)N1C[Si]2(CCCC2)C[C@H]1c1cnc(-c2ccc(-c3ccc(-c4cnc([C@@H]5CCCN5C(=O)[C@@H](NC(=O)OC)C(C)C)[nH]4)cc3)cc2)[nH]1)C(C)C` [Compound 73], for which the EC90 in the test on HCV replicon 1a was 0.38 nM; in the test on HCV replicon 1b, 0.006 nM; with HCV replicon 1a Y93H, 973 nM.
Regarding `CC(C)(C)OC(=O)N1CCC[C@H]1C(=O)Nc1nn(C(=O)OC(C)(C)C)c2ccc(-c3ccc(-c4cnc([C@@H]5C[Si](C)(C)CN5C(=O)OC(C)(C)C)[nH]4)cc3)cc12` [Compound 77], the results for the EC90 with HCV replicon 1a and with HCV replicon 1a Y93H were over 1000 nM and over 10000 nM, respectively.
As for `COC(=O)N[C@H](C(=O)N1C[Si](C)(C)C[C@H]1c1ncc(-c2ccc(-c3ccc4[nH]c([C@@H]5CC(F)(F)CN5C(=O)[C@@H](NC(=O)OC)C(C)C)nc4c3)cc2F)[nH]1)C(C)C` [Compound 71], the EC90 is over 1 nM in the test on HCV replicon 1a, 0.005 nM in the test with HCV replicon 1b and over 1000 nM with HCV replicon 1a Y93H.
As for `CC(C)(C)OC(=O)N1C[Si](C)(C)C[C@H]1c1ncc(-c2ccc(-c3ccc(-c4[nH]c([C@@H]5CCCN5C(=O)OC(C)(C)C)nc4C4CC4)cc3)cc2)[nH]1` [Compound 61], the EC90 in the test on HCV replicon 1a was determined as 81 nM; in the test with HCV replicon 1a Y93H, 655 nM.
The corresponding values for `CC(C)(C)OC(=O)N1C[Si](C)(C)C[C@H]1c1ncc(-c2ccc(-c3ccc(-c4ncc([C@@H]5C[C@H]6C[C@H]6N5C(=O)OC(C)(C)C)[nH]4)cc3)cc2)[nH]1` [Compound 68] are over 1000 nM and over 1000 nM.
Regarding `COC(=O)N[C@H](C(=O)N1C[C@H](F)C[C@H]1c1ncc(-c2ccc(C#Cc3ccc(-c4cnc([C@@H]5C[Si](C)(C)CN5)[nH]4)cc3)cc2)[nH]1)C(C)C` [Compound 57], the results for the EC90 with HCV replicon 1a and in the test with HCV replicon 1a Y93H were 780 nM and over 1000 nM, respectively.
For the molecule `COC(=O)N[C@H](C(=O)N1C[C@H](F)C[C@H]1c1ncc(-c2ccc(-c3ccc(-c4cnc([C@@H]5C[Si](C)(C)CN5C(=O)[C@@H](NC(=O)OC)C(C)C)[nH]4)cc3)cc2)[nH]1)C(C)C` [Compound 7], the EC90 was found to be 0.77 nM in the test on HCV replicon 1a, 0.009 nM in the test with HCV replicon 1b and 229 nM in the test with HCV replicon 1a Y93H.
In the case of `COC(=O)N[C@H](C(=O)N1C[Si](C)(C)C[C@H]1c1ncc(-c2ccc(-c3ccc(-c4cnc([C@@H]5C[Si](C)(C)CN5C(=O)[C@@H](NC(=O)OC)C(C)C)[nH]4)cc3)cc2)[nH]1)C(C)C` [Compound 6], the 90% effect concentration (EC90) with HCV replicon 1a is 0.98 nM; in the test with HCV replicon 1b, 0.015 nM; with HCV replicon 1a Y93H it was over 1000 nM.
Take `CC(C)(C)OC(=O)N1CCC[C@H]1C(=O)Nc1n[nH]c2ccc(-c3ccc(-c4cnc([C@@H]5C[Si](C)(C)CN5C(=O)OC(C)(C)C)[nH]4)cc3)cc12` [Compound 76]: the EC90 with HCV replicon 1a was over 1000 nM; in the test with HCV replicon 1a Y93H, over 10000 nM.
For `COC(=O)N[C@H](C(=O)N1C[Si](C)(C)C[C@H]1c1ncc(-c2ccc(-c3ccc(-c4cnc([C@@H]5[C@H]6CC[C@H](C6)N5C(=O)[C@@H](NC(=O)OC)C(C)C)[nH]4)cc3)cc2)[nH]1)C(C)C` [Compound 5], the values for the EC90 in the test with HCV replicon 1a, with HCV replicon 1b and with HCV replicon 1a Y93H were 0.21 nM, 0.004 nM and 203 nM, respectively.
The corresponding values for `COC(=O)N[C@H](C(=O)N1CCC[C@H]1c1cnc(-c2ccc(-c3ccc(-c4cnc([C@@H]5C[Si](C)(C)CN5C(=O)[C@@H](NC(=O)OC)C(C)C)[nH]4)cc3)cc2)[nH]1)C(C)C` [Compound 72] are 0.092 nM, 0.005 nM and 330 nM.
The like results for `COC(=O)N[C@H](C(=O)N1CCC[C@H]1c1cnc(-c2ccc3c(c2)[Si](C)(C)c2cc(-c4cnc([C@@H]5CCCN5C(=O)[C@@H](NC(=O)OC)C(C)C)[nH]4)ccc2-3)[nH]1)C(C)C` [Compound 82] were, in that order, 0.076 nM, 0.043 nM and 811 nM.
